In patent publication US20250179436A1, “HUMAN FATTY-LIVER MODEL CELLS” (PhoenixBio Co., Ltd., priority 2019, published 2025):

Tests used:
[1] = test system: PXB-cells; experiment: Human albumin content in culture supernatant of PXB-cells (immunoturbidimetric method), toxicity index; assay type: cell-based; settings: 2 days
[2] = test system: PXB-cells; experiment: Fat droplets in PXB-cells cultured in medium with or without DMSO (photomicrograph); assay type: cell-based, human; settings: 2% DMSO, PXB-cells cultured 5 days
Protocol: The following day of seeding, medium A was removed. Instead, 500 μL of medium B (DMSO (+)) or medium C (DMSO (−)) was added. The plate was gently placed in an incubator (37° C., 5% CO2) and the cells were cultured for 5 days. After completion of culture, an image of the cells was taken by a photomicrographic camera. Then, the culture supernatant was recovered and subjected to analysis for lipoprotein in the culture supernatant described below.

[3] = test system: PXB-cells; experiment: Total neutral fat of lipoproteins in culture supernatant of PXB-cells cultured with or without DMSO; assay type: cell-based, human; settings: 2% DMSO, PXB-cells cultured 5 days
Protocol: The following day of seeding, medium A was removed. Instead, 500 μL of medium B (DMSO (+)) or medium C (DMSO (−)) was added. The plate was gently placed in an incubator (37° C., 5% CO2) and the cells were cultured for 5 days. After completion of culture, an image of the cells was taken by a photomicrographic camera. Then, the culture supernatant was recovered and subjected to analysis for lipoprotein in the culture supernatant described below. Lipoproteins contained in the culture supernatants of PXB-cells, HepG2 cells and HuH7 cells were analyzed by using LipoSEARCH (registered trademark) method (Skylight Biotech, Inc.). After completion of the culture mentioned above, the medium used in the culture was removed and 500 μL of medium D for analysis was added. The culture plate was gently placed in an incubator (37° C., 5% CO2) and the cells were cultured for 2 days. Thereafter, the culture supernatant was recovered, lipoproteins contained in the culture supernatant (80 μL) were fractionated into 4 types of subgroups, CM, VLDL, LDL and HDL fractions, by gel filtration HPLC. Cholesterol and neutral fat (triglyceride) contained in individual fractions were quantified by online enzyme reactions. […]

[4] = test system: PXB-cells; experiment: Screening test: total cholesterol and total neutral fat (triglyceride) in culture supernatant of PXB-cells (LipoSEARCH); assay type: cell-based, human; settings: lomitapide 1, 10, 100 μM, 2 days; PXB-cells pre-cultured 12 days in medium B (DMSO (+)); vs ethanol control
Protocol: Lipoproteins contained in the culture supernatants of PXB-cells, HepG2 cells and HuH7 cells were analyzed by using LipoSEARCH (registered trademark) method (Skylight Biotech, Inc.).
After completion of the culture mentioned above, the medium used in the culture was removed and 500 μL of medium D for analysis was added. The culture plate was gently placed in an incubator (37° C., 5% CO2) and the cells were cultured for 2 days. Thereafter, the culture supernatant was recovered, lipoproteins contained in the culture supernatant (80 μL) were fractionated into 4 types of subgroups, CM, VLDL, LDL and HDL fractions, by gel filtration HPLC. Cholesterol and neutral fat (triglyceride) contained in individual fractions were quantified by online enzyme reactions. […]
Each test substance was suspended with ethanol and added in a predetermined amount to a PXB-cell culture, gently placed in an incubator (37° C., 5% CO2) and cultured for 2 days. After completion of culture, the total cholesterol and total neutral fat (triglyceride) in culture supernatant and in cells were measured in accordance with the methods described in the sections “Analysis of lipoprotein in culture supernatant” and “Analysis of lipoprotein in cells”. […]

[5] = test system: PXB-cells; experiment: Screening test: total cholesterol and total neutral fat (triglyceride) in PXB-cells (Cholestest); assay type: cell-based, human; settings: lomitapide 1, 10, 100 μM, 2 days; PXB-cells pre-cultured 12 days in medium B (DMSO (+)); vs ethanol control
Protocol: Triglyceride in cells was measured by use of Cholestest (registered trademark) TG (Sekisui Medical Co., Ltd.) in accordance with the instruction by the manufacturer. More specifically, the cells were washed with PBS, and then, completely dewatered (stored at −80° C. until measurement). To each well containing the cells, 200 μL of TG enzyme solution (1) was added. A reaction was allowed to proceed while keeping the cells warm at 37° C. for 10 minutes (free glycerol was removed). Then, the cells were torn away by pipetting, transferred to a centrifuge tube and centrifuged at 10,000 rpm×10 minutes. Then, the supernatant (7.5 μL) was transferred to a 96-well microplate. […] The resultant reaction product was subjected to measurement of absorbance at 550 nm. The content of triglyceride was calculated based on HDL-C180A as the reference (triglyceride concentration of HDL-C180A was 52.26 mg/dL).
Intracellular cholesterol was measured by use of Cholestest (registered trademark) CHO (Sekisui Medical Co., Ltd.) in accordance with the instruction by the manufacturer. […] The resultant reaction product was subjected to measurement of absorbance at 550 nm. The content of cholesterol was calculated based on HDL-C180A as the standard ([…] concentration of HDL-C180A was 152.67 mg/dL). […]

**Q.** For CCC(C)(C)C(=O)O[C@H]1C[C@@H](C)C=C2C=C[C@H](C)[C@H](CC[C@@H]3C[C@@H](O)CC(=O)O3)[C@H]21 [simvastatin], which “human albumin content in the culture supernatant” value ([1]; simvastatin 0.1, 1, 10 μM, PXB-cells in medium B (DMSO (+))) is on record?
**A.** no significant decrease

**Q.** What does the source list for C[S+](C)[O-] [DMSO, dimethyl sulfoxide]?
**A.** number of fat droplets, medium B (DMSO (+)) compared to medium C (DMSO (−)) [2]: about double; secretion of total neutral fat (triglyceride) in lipoproteins, medium B (DMSO (+)) relative to medium C (DMSO (−)) [3]: about 9 times

**Q.** Which “content of human albumin in the culture supernatant” value ([1]; lomitapide 1, 10, 100 μM, PXB-cells in medium B (DMSO (+))) does the source give for O=C(NC1CCN(CCCCC2(C(=O)NCC(F)(F)F)c3ccccc3-c3ccccc32)CC1)c1ccccc1-c1ccc(C(F)(F)F)cc1 [lomitapide] here?
**A.** decreased depending on the addition amount

**Q.** What about the “toxicity (based on human albumin content)” value ([1]; lomitapide, high amount (1-100 μM tested), PXB-cells) of the same molecule?
**A.** toxic

**Q.** And the “total cholesterol content in the culture supernatants” value [4]?
**A.** significantly decreased

**Q.** What about the “total neutral fat (triglyceride) content in the culture supernatants” value [4] of the same molecule?
**A.** significantly decreased

**Q.** And the “total cholesterol content in the cells” value [5]?
**A.** no significant decrease

**Q.** What about the “total neutral fat (triglyceride) content in the cells” value [5] of the same molecule?
**A.** no significant decrease
